Experimental data published in patent US7531360B2, “Method of dechlorination treatment of flowing water, in particular upstream of a biological pollution detector” (Societe des Eaux de Marseille, priority 2005, dated 2009).
“Also recorded” adds a separate entry of the source. Values belong to the compound of their own block, whether it stands above or below them.

Legend:
trout fingerlings [1] = test: Toxicity of chlorine for trout fingerlings: aquarium with increasing concentrations of sodium hypochlorite; format: in vivo; conditions: maintained 8 hours
Procedure: This toxicity of chlorine for trout fingerlings has also been shown by the inventors. Twelve trout fingerlings were maintained in an aquarium containing water chlorinated with increasing concentrations of sodium hypochlorite. Each chlorine concentration was maintained for a period of 8 hours. The aquarium was placed under permanent aeration using an air pump equipped with a porous diffuser. The following table presents the results observed during this experiment.
The following table presents the results observed during this experiment. ([Cl2]=chlorine disinfectant expressed in equivalent Cl2.)

trout fingerlings [2] = test: Tests of known dechlorination agents for use with biological detector
Excerpt: The inventors carried out a number of experiments to test the various known dechlorination agents mentioned above.

[3] = Maintenance of reducing power of stored ascorbic acid solution over time (iodometry, FIG. 1); conditions: for Reducing activity of degradation by-product: compared with initial ascorbic acid
[4] = Effect of excess ascorbic acid on pH, dissolved oxygen and residual chlorine in artificially chlorinated distributed water; conditions: stoichiometric or slight excess of reducing agent
Excerpt: In order to ensure effective dechlorination, it is advantageous to control the system using a chlorine analyzer (a metering pump controlled by a chlorine analyzer). However, to avoid this metering pump control, it is possible to work with a slight excess of ascorbic acid. […] Experiments were thus carried out in this area on artificially chlorinated distributed water to verify these effects.
It should be noted that the pH still remains in a range favorable to the survival of trout fingerlings regardless of the initial pH of the distributed water.

[5] = Flowing dechlorination test without trout fingerlings (metering pump, in-line mixer, FIG. 2)
Fario trout fingerlings = test: Validation of treatment installation coupled with TruitoSEM biological detector
trout fingerlings [6] = conditions: ascorbic acid 75 mg/l, 6 trout fingerlings, 15 days
Excerpt: As for the TruitoSEM, the aquarium was maintained under constant aeration.

trout fingerlings [7] = test: Flowing dechlorination tests in the presence of trout fingerlings; format: in vivo; conditions: continuous period of several days
Procedure: The dechlorinated water flowing out of the mixer directly feeds the aquarium, which is equipped with two probes to measure dissolved oxygen, pH and temperature in real time. The aquarium is maintained under permanent aeration so that stress is not induced in the fish due to a lack of dissolved oxygen.
These flowing dechlorination tests were then carried out in the presence of trout fingerlings, for a continuous period of several days.

Structure (SMILES): OCl [sodium hypochlorite]
- Effects observed (trout fingerlings [1]; [Cl2] 0.25 mg/l): No effect.
- Mortality % observed (trout fingerlings [1]; [Cl2] 0.25 mg/l, 12 trout fingerlings): 0%
- Effects observed (trout fingerlings [1]; [Cl2] 0.70 mg/l): Reduction in mobility; also recorded: Accelerated ventilation
- Mortality % observed (trout fingerlings [1]; [Cl2] 0.70 mg/l): 10%
- Effects observed (trout fingerlings [1]; [Cl2] 1.4 mg/l): Highly reduced mobility; also recorded: Loss of appetite; also recorded: Very high ventilation; also recorded: Reduction in the size of the iris
- Mortality % observed (trout fingerlings [1]; [Cl2] 1.4 mg/l): 60%
- Effects observed (trout fingerlings [1]; [Cl2] 2.1 mg/l): Swimming on the side then on the back; also recorded: Death
- Mortality % observed (trout fingerlings [1]; [Cl2] 2.1 mg/l): 100%

Structure (SMILES): O=S([O-])O.[Na+] [sodium bisulfite, sodium bisulfite (NaHSO3)]
- Outcome for trout fingerlings (trout fingerlings [2]; various implementation conditions): death of the trout fingerlings

- Reducing activity of degradation by-product [3]: lessened reducing activity
Structure (SMILES): CCC(=O)C=O [ethylglyoxal]

Structure (SMILES): O=C1O[C@H]([C@@H](O)CO)C(=O)C1=O [dehydroascorbic acid]
- Reducing activity of degradation by-product [3]: equivalent to that of the initial ascorbic acid

Structure (SMILES): O=C1O[C@H]([C@@H](O)CO)C(O)=C1O [ascorbic acid, L-ascorbic acid]
- Residual chlorine concentration after treatment [4]: < 0.1 mg/L
- Ascorbic acid flow rate for effective dechlorination ([5]; 20% solution stored 60 days away from light at ambient temperature (R=3)): 0.036 L/h
- Ascorbic acid flow rate for effective dechlorination ([5]; 20% solution, t=0, optimal setting (R=2.5)): 0.030 L/h
- Decrease of speed of reaction with chlorine ([5]; ascorbic acid 60 days old): 16%
- Dechlorination yield ([5]; initial chlorine 4.5 mg/l equivalent Cl2, 20% ascorbic acid flow rate 0.030 l/h (R=2.5)): ~100%
- Reduction in reducing power over time ([3]; 10% ascorbic acid solution, darkness, approx. 20° C., after 35 days): −10%
- Loss of reducing activity ([3]; ascorbic acid after 60 days, FIG. 1): 5%
- Effectiveness of the product (chlorine elimination) after storage ([3]; at least 20% (200 g/l) solution, after 60 days of use): approximately 95%
- Mortality of biological indicators (Fario trout fingerlings; 8 hours/day for twenty days, real operating conditions): did not generate any mortality
- Elimination of chlorine in installation (Fario trout fingerlings; in-flow 4.5 mg/l Cl2, water 160 l/h, 20% ascorbic acid 0.036 l/h, solution stored 0 to 60 days): complete neutralization
- Behavior of trout fingerlings (trout fingerlings [6]): did not show any significant change in the behavior
- Physical signs and mobility of trout fingerlings (trout fingerlings [7]): no abnormal physical signs and normal mobility

Structure (SMILES): O=C1O[C@H]([C@@H](O)CO)C([O-])=C1O.[Na+] [Sodium ascorbate, sodium ascorbate]
- Stability of reagent (trout fingerlings [2]): lack of stability
